Source: a melting point compilation (Tetko et al.; mined from patent text by program, amines drawn as free bases though some values may be those of a salt)

Row | SMILES | melting point
1 | CC(C)c1ccc2c(c1)C(Cl)Cc1ccc(F)cc1S2 (configuration not stated) | 82 to 83 °C
2 | Cc1cc(C#N)cc(C(=O)Nc2ccc(F)cc2)n1 | 189 °C
3 | CCCN1N=C2C(=Cc3ccc(OC)cc3)CS(=O)(=O)CC2C1c1ccc(OC)cc1 (configuration not stated) | 195 to 198 °C
4 | CC(C)(C)CNc1nc(Cl)cc(N2CCCC2)n1 | 147 to 150 °C
5 | COc1cc2[nH]ccc2cc1OCCCN1CCC(c2noc3cc(F)ccc23)CC1 | 186 to 188 °C
6 | COc1ccccc1/C(=C/C=C/C(=O)NCCCCc1cccnc1)c1ccccc1 | 66 to 68 °C
7 | CNCc1nc(-c2ncn3c2CN(C)C(=O)c2c(Cl)cccc2-3)no1 | 192 to 193 °C
8 | CCCc1c(O)c(C(C)=O)cc(Cl)c1OCCCCCOc1c(C(C)=O)ccc(OCC(=O)O)c1CCC | 77 to 80 °C
9 | CCOC(=O)c1ccc2cc(-c3ccc(OC)cc3)ccn2c1=O | 205 to 209 °C
10 | COc1ccc(N(Cc2cccnc2)S(C)(=O)=O)c(OC)c1 | 117 to 119 °C
11 | CCCc1nc(-n2cccc2C(=O)C(F)(F)F)c(C#N)[nH]1 | 104 to 105 °C
12 | CCOc1c(NCc2c(C)cccc2C)c(=O)c1=O | 281 to 283 °C
13 | Cc1ccc(-c2nc(C)c(C)c(=O)[nH]2)cc1 | 250 °C
14 | O=C(O)C1CCC=C(c2ccccc2)C1 (configuration not stated) | 77 to 80 °C
15 | Nc1nc2ccccc2c2c1ncn2CCCCNC(=O)Oc1ccc2ccccc2c1 | 154 to 155 °C
16 | O=C(O)c1cc2c(s1)-c1cc(F)ccc1CC2 | 240 to 242 °C
17 | CC(C)Cn1c(=O)n(C)c(=O)c2cc(Cc3cccc(F)c3)sc21 | 76 to 78 °C
18 | CC1(C)CON(Cc2c(Cl)cccc2[N+](=O)[O-])C1=O | 86 to 88 °C
19 | Clc1cccc2c(C3=CCNCC3)c[nH]c12 | 197 to 201 °C
20 | COc1cccc2c1Sc1cc(Cl)ccc1C2 | 72 to 74 °C
21 | CC(C)Oc1ccc(SCCSc2ccc(OC(C)C)cc2)cc1 | 115 to 116 °C

Row | SMILES | melting point
22 | COc1cccc(C(O)CN(C)Cc2cc3c(=O)c(C(=O)NCc4ccc(Cl)cc4)cn(C)c3o2)c1 (configuration not stated) | 116 to 120 °C
23 | OCCOc1cc2ccccc2cc1OCCOc1ccccc1 | 119 to 120 °C
24 | CCOC(=O)CNCC1CC2c3cccc4[nH]cc(c34)CC2N(C)C1 (configuration not stated) | 174 to 176 °C
25 | C=CCc1c(-c2ccc(C#N)cc2)[nH]c2cc(C#N)ccc12 | 217 to 221 °C
26 | Cc1cc(-c2ccc(-c3ccco3)cc2)cc(S(N)(=O)=O)c1-n1ccc(C(F)(F)F)n1 | 87 to 89 °C
27 | CS(=O)(=O)On1c(C(F)(F)F)nc2ncc(Cl)cc21 | 137 °C
28 | CC(=Nc1c(C)cccc1C)C(C)=Nc1c(C)cccc1C | 78 to 86 °C
29 | CCN(CC)c1ccc2cc(C(=O)NN)oc2c1 | 127 to 129 °C
30 | Cc1ccc2sc(C(C)(C)C)nc2c1 | 55 to 57 °C
31 | COc1cccn2c(=O)c3c(nc12)C(=Cc1ccccc1Cl)CC3 | 247 to 248 °C
32 | NC1=NCC(COc2ccccc2F)O1 (configuration not stated) | 124 °C
33 | CNC(=O)n1cc(Br)cnc1=O | 236 to 238 °C
34 | Cc1cc(C)c2c(c1C)NC(C)(CCCC(C)CCCC(C)CCCC(C)C)CC2 (configuration not stated) | 72 to 73 °C
35 | O=C(O)CCc1cn(Cc2ccc(OCc3ccc(-c4ccccc4)cn3)cc2)nc1-c1ccccc1 | 149 to 150 °C
36 | Nc1ccc(Oc2ncc(C(F)(F)F)cc2Cl)cc1 | 85 to 87 °C
37 | CCCOCCOc1ccc(-c2ccc3c(c2)C=C(C(=O)O)CCN3CCCOC)cc1 | 114 to 115 °C
38 | CC(C)(C)OC(=O)NCCCCn1c(-c2ccccc2)cc2ccc(C(=O)c3cc(CC(=O)O)c(-c4ccccc4)s3)cc21 | 167 to 169 °C
39 | CNC1NC(=O)N(C)C(=O)N1N (configuration not stated) | 225 to 227 °C
40 | O=c1cc(-c2ccsc2)c2ccc(O)cc2o1 | 234 to 236 °C
41 | CCOC(=O)Cn1c2c(c3c(Cl)cc(Cl)cc31)CCN(C(=O)OC(C)(C)C)CC2 | 144 to 147 °C
42 | Cc1ccccc1C(=O)Nc1ccc(C(=O)N2CCCC(O)(CO)c3ccccc32)cc1 (configuration not stated) | 136 to 140 °C
